# In patent US11548890B1, “HPK1 antagonists and uses thereof” (Nimbus Saturn, Inc., priority 2019, dated 2023):
# Biological target: HPK1 (Homo sapiens (Human), UniProt Q92918)
# Test: HPK1 biochemical enzyme assay (microfluidic mobility shift assay)
# Conditions: ATP 1 mM final concentration; 1.5 nM HPK1; 30 min preincubation; Caliper EZ Reader; read-out: HPK1 1000UMATP caliper IC50
# Procedure: HPK1 biochemical enzyme assay: HPK1 enzyme inhibition was measured using a microfluidic mobility shift assay. […] Test compounds were titrated in ten point curves (top final assay concentration 3 μM), and preincubated with enzyme/substrate mix for 30 min prior to initiation of the reaction by addition of ATP (1 mM final concentration) and substrate (1 μM final concentration; Carna Biosciences) diluted in assay buffer supplemented by MgCl2 (final assay concentration of 5 mM). Following 60 min incubation at RT, the reaction was terminated by addition of 60 μl/well termination buffer (Carna Biosciences) and signal determination using a Caliper EZ Reader (Perkin Elmer, UK).
# The compound numbers correspond to the compound numbers in Table 1.
# Chain of HPK1 (Q92918 whole entry): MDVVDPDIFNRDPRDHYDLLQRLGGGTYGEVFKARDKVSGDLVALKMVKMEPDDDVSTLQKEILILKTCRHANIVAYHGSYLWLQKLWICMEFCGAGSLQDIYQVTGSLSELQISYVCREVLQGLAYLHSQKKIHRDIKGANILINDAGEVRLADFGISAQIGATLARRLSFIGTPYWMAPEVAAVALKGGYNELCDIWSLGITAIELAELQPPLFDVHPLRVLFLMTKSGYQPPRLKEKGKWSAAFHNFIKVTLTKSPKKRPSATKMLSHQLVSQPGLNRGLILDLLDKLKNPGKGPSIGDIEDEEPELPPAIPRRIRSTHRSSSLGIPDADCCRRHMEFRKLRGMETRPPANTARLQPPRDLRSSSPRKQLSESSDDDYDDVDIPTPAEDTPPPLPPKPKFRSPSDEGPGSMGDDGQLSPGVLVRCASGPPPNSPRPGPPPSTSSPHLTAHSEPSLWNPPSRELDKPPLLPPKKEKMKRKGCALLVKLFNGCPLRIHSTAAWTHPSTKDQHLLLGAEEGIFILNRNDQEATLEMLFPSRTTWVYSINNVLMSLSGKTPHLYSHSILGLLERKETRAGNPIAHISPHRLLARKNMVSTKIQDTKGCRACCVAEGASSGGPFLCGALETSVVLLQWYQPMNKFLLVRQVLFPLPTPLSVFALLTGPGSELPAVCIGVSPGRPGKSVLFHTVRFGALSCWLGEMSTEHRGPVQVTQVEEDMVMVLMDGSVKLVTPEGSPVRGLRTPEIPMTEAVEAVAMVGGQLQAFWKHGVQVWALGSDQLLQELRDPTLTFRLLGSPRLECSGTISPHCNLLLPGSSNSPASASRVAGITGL
row,Molecule,IC50
1,"CN(C)Cc1nc(Nc2ccc(-c3cnc4cc(F)ccn34)c3c2C(=O)NC3)ccc1OCC(F)F [I-835, 7-((5-(2,2-difluoroethoxy)-6-((dimethylamino)methyl)pyridin-2-yl)amino)-4-(7-fluoroimidazo[1,2-a]pyridin-3-yl)isoindolin-1-one]",< 100 nM
2,"CO[C@H]1CC[C@H](c2ccc(Nc3ccc(-c4cnc5cc(F)ccn45)c4c3C(=O)NC4)nc2CN(C)C)C1 [I-793, 7-((6-((dimethylamino)-methyl)-5-((1S,3S)-3-methoxycyclo-pentyl)pyridin-2-yl)amino)-4-(7-fluoroimidazo [1,2-a]pyridin-3-yl)isoindolin-1-one]",< 100 nM
3,"(R)-7-((5-(2- (methoxymeth- yl)morpholino) pyridin-2- yl)amino)-4- (7- methylimidazo [1,2- a]pyrimidin-3- yl)isoindolin- 1-one [I-628]",< 100 nM
4,"7-((6-((dimethylamino)methyl)-4-(tetrahydrofuran-2-yl)pyridin-2-yl)amino)-4-(7-fluoroimidazo[1,2-a]pyridin-3-yl)isoindolin-1-one [I-852]",< 100 nM

# Other lines, results leading:
row,IC50,Molecule
1,< 100 nM,"Cn1ccc2c(-c3ncc(Nc4ccc(N5CCOCC5)cn4)c4c3CNC4=O)cccc21 [I-221, 4-(1-methylindol-4-yl)-7-[(5-morpholino-2-pyridyl)amino]-2,3-dihydropy-rrolo[3,4-c]pyridin-1-one]"
2,< 100 nM,"CC(C)(N)[C@H]1CN(c2ccc(Nc3ccc(-c4cnc5cc(F)ccn45)c4c3C(=O)NC4)nc2)CCO1 (single isomer, unassigned) [I-671]"
3,< 100 nM,"C[C@H](c1ccc(Nc2ccc(-c3cnc4cc(F)ccn34)c3c2C(=O)NC3)nc1)N(C)C [I-521, (R)-7-((5-(1-(dimethylamino)-ethyl)pyridin-2-yl)amino)-4-(7-fluoroimidazo [1,2-a]pyridin-3-yl)isoindolin-1-one]"
4,< 100 nM,"Cc1ccn2c(-c3ccc(Nc4ccc(N5CCOCC5)cn4)c4c3CNC4=O)cnc2c1 [I-145, 4-(7-methylimidazo [1,2-a]pyridin-3-yl)-7-[(5-morpholino-2-pyridyl)amino] isoindolin-1-one]"
5,< 100 nM,"O=C1NCc2c(-c3cnc4cc(F)ccn34)ccc(Nc3ccc(N4CCO[C@@H](CNC5CC5)C4)cn3)c21 [I-495, 7-[[5-[(2S)-2-[(cyclopropyl-amino)methyl]morpholin-4-yl]-2-pyridyl]amino]-4-(7-fluoroimidazo [1,2-a]pyridin-3-yl)isoindolin-1-one]"
6,< 100 nM,"Cn1ccc2c(-c3ncc(Nc4ccc(N5CCC(O)CC5)cn4)c4c3CNC4=O)ccnc21 [I-139, 7-[[5-(4-hydroxy-1-piperidyl)-2-pyridyl]amino]-4-(1-methylpyrrolo [2,3-b]pyridin-4-yl)-2,3-dihydropy-rrolo[3,4-c]pyridin-1-one]"
